Laboratory results reported in patent publication US8952024B2, “Herbicidal pyrimidone derivatives” (E I du Pont de Nemours and Company, priority 2009, dated 2015).
Where two headings read alike, the source gives them in different places.

Columns and labels:
Assay in all cases: Test B pre-/postemergence plant response
Format in all cases: in vivo
[1] = system: Italian ryegrass (Lolium multiflorum); settings: Preemergence
Method in brief: (§1)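 Each species received compound formulated in non-phytotoxic solvent with surfactant, either at planting into a loam and sand blend or as a foliar spray once plants reached 2 to 18 cm in peat-based medium. Plants stayed in the greenhouse 13 to 15 days before visual evaluation against controls, scored 0 (no effect) to 100 (complete control).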

[2] = system: lambsquarters (Chenopodium album); settings: for pest or weed control at 31 g/ha: 31 g ai/ha; for pest or weed control at 62 g/ha: 62 g ai/ha; for pest or weed control at 125 g/ha: 125 g ai/ha
Method in brief: as §1

[3] = system: pigweed (Amaranthus retroflexus); settings: for pest or weed control at 31 g/ha: 31 g ai/ha; for pest or weed control at 62 g/ha: 62 g ai/ha; for pest or weed control at 125 g/ha: 125 g ai/ha
Method in brief: as §1

[4] = system: wheat (Triticum aestivum); settings: for plant injury at 31 g/ha: 31 g ai/ha; for plant injury at 62 g/ha: 62 g ai/ha; for plant injury at 125 g/ha: 125 g ai/ha
Method in brief: as §1

[5] = system: green foxtail (Setaria viridis); settings: for pest or weed control at 31 g/ha: 31 g ai/ha; for pest or weed control at 62 g/ha: 62 g ai/ha; for pest or weed control at 125 g/ha: 125 g ai/ha
Method in brief: as §1

[6] = system: goosegrass (Eleusine indica); settings: for pest or weed control at 31 g/ha: 31 g ai/ha; for pest or weed control at 62 g/ha: 62 g ai/ha; for pest or weed control at 125 g/ha: 125 g ai/ha
Method in brief: as §1

[7] = system: velvetleaf (Abutilon theophrasti); settings: for pest or weed control at 31 g/ha: 31 g ai/ha; for pest or weed control at 62 g/ha: 62 g ai/ha; for pest or weed control at 125 g/ha: 125 g ai/ha
Method in brief: as §1

[8] = Chenopodium album, pre-emergence, Preemergence, scale 0 to 100 (0 no effect, 100 complete control), read-out: Plant response rating, Lambsquarters
[9] = Preemergence, 250 g ai/ha, 0 to 100 scale
[10] = Amaranthus retroflexus, pre-emergence, Preemergence, scale 0 to 100 (0 no effect, 100 complete control), read-out: Plant response rating, Pigweed
[11] = Triticum aestivum, pre-emergence, Preemergence, scale 0 to 100 (0 no effect, 100 complete control), read-out: Plant response rating, Wheat
[12] = Setaria viridis, pre-emergence, Preemergence, scale 0 to 100 (0 no effect, 100 complete control), read-out: Plant response rating, Foxtail, Green
[13] = Eleusine indica, pre-emergence, Preemergence, scale 0 to 100 (0 no effect, 100 complete control), read-out: Plant response rating, Goosegrass
[14] = Abutilon theophrasti, pre-emergence, 360 h, Preemergence, scale 0 to 100 (0 no effect, 100 complete control), read-out: Plant response rating, Velvetleaf

Q: Which results are given for `COCCn1c(-c2cc(F)cc(F)c2)ncc(C(=O)C2=C(O)C3CCC(C3)C2=O)c1=O` (stereo not shown) [Compound 243, 2-(3,5-difluorophenyl)-5-[(2-hydroxy-4-oxobicyclo[3.2.1]oct-2-en-3-yl)carbonyl]-3-(2-methoxyethyl)-4(3H)-pyrimidinone]?
A: pest or weed control at 31 g/ha ([1]; Lolium multiflorum, pre-emergence, 31 g ai/ha, scale 0 to 100 (0 no effect, 100 complete control), read-out: Plant response rating, Ryegrass, Italian): 0%; pest or weed control at 62 g/ha ([1]; Lolium multiflorum, pre-emergence, 62 g ai/ha, scale 0 to 100 (0 no effect, 100 complete control), read-out: Plant response rating, Ryegrass, Italian): 10%; pest or weed control at 125 g/ha ([1]; Lolium multiflorum, pre-emergence, 125 g ai/ha, scale 0 to 100, 0 no effect, 100 complete control, read-out: Plant response rating, Ryegrass, Italian): 45%; Ryegrass, Italian plant response rating ([1]; 250 g ai/ha, 0 to 100 scale): 70; pest or weed control at 31 g/ha ([2]; Chenopodium album, post-emergence, Postemergence, 0 to 100 scale (0 no effect, 100 complete control), read-out: Plant response rating, Lambsquarters): 100%; pest or weed control at 62 g/ha ([2]; Chenopodium album, post-emergence, Postemergence, scale 0 to 100 (0 no effect, 100 complete control), read-out: Plant response rating, Lambsquarters): 100%; pest or weed control at 125 g/ha ([2]; Chenopodium album, post-emergence, Postemergence, scale 0 (no effect) to 100 (complete control), 13 to 15 days, read-out: Plant response rating, Lambsquarters): 100%; pest or weed control at 250 g/ha ([2]; Chenopodium album, post-emergence, Postemergence, 250 g ai/ha, scale 0 to 100 (0 no effect, 100 complete control), 13 to 15 days, read-out: Plant response rating, Lambsquarters): 100%; pest or weed control at 31 g/ha [2, 8]: 100%; pest or weed control at 62 g/ha [2, 8]: 100%; pest or weed control at 125 g/ha ([2]; Chenopodium album, pre-emergence, Preemergence, scale 0 to 100, 0 no effect, 100 complete control, read-out: Plant response rating, Lambsquarters): 100%; Lambsquarters plant response rating [2, 9]: 100; pest or weed control at 31 g/ha ([3]; Amaranthus retroflexus, post-emergence, Postemergence, 0 to 100 scale (0 no effect, 100 complete control), read-out: Plant response rating, Pigweed): 85%; pest or weed control at 62 g/ha ([3]; Amaranthus retroflexus, post-emergence, Postemergence, scale 0 to 100 (0 no effect, 100 complete control), read-out: Plant response rating, Pigweed): 100%; pest or weed control at 125 g/ha ([3]; Amaranthus retroflexus, post-emergence, Postemergence, scale 0 (no effect) to 100 (complete control), 13 to 15 days, read-out: Plant response rating, Pigweed): 100%; pest or weed control at 250 g/ha ([3]; Amaranthus retroflexus, post-emergence, Postemergence, 250 g ai/ha, scale 0 to 100 (0 no effect, 100 complete control), 13 to 15 days, read-out: Plant response rating, Pigweed): 100%; pest or weed control at 31 g/ha [3, 10]: 75%; pest or weed control at 62 g/ha [3, 10]: 98%; pest or weed control at 125 g/ha ([3]; Amaranthus retroflexus, pre-emergence, Preemergence, scale 0 to 100, 0 no effect, 100 complete control, read-out: Plant response rating, Pigweed): 100%; Pigweed plant response rating [3, 9]: 100; Wheat plant response rating [4, 9]: 70; plant injury at 31 g/ha ([4]; Triticum aestivum, post-emergence, Postemergence, 0 to 100 scale (0 no effect, 100 complete control), read-out: Plant response rating, Wheat): 85%; plant injury at 62 g/ha ([4]; Triticum aestivum, post-emergence, Postemergence, scale 0 to 100 (0 no effect, 100 complete control), read-out: Plant response rating, Wheat): 95%; plant injury at 125 g/ha ([4]; Triticum aestivum, post-emergence, Postemergence, scale 0 (no effect) to 100 (complete control), 13 to 15 days, read-out: Plant response rating, Wheat): 95%; plant injury at 250 g/ha ([4]; Triticum aestivum, post-emergence, Postemergence, 250 g ai/ha, scale 0 to 100 (0 no effect, 100 complete control), 13 to 15 days, read-out: Plant response rating, Wheat): 100%; plant injury at 31 g/ha [4, 11]: 0%; plant injury at 62 g/ha [4, 11]: 40%; plant injury at 125 g/ha ([4]; Triticum aestivum, pre-emergence, Preemergence, scale 0 to 100, 0 no effect, 100 complete control, read-out: Plant response rating, Wheat): 70%; Foxtail, Green plant response rating [5, 9]: 100; pest or weed control at 31 g/ha ([5]; Setaria viridis, post-emergence, Postemergence, 0 to 100 scale (0 no effect, 100 complete control), read-out: Plant response rating, Foxtail, Green): 98%; pest or weed control at 62 g/ha ([5]; Setaria viridis, post-emergence, Postemergence, scale 0 to 100 (0 no effect, 100 complete control), read-out: Plant response rating, Foxtail, Green): 98%; pest or weed control at 125 g/ha ([5]; Setaria viridis, post-emergence, Postemergence, scale 0 (no effect) to 100 (complete control), 13 to 15 days, read-out: Plant response rating, Foxtail, Green): 100%; pest or weed control at 250 g/ha ([5]; Setaria viridis, post-emergence, Postemergence, 250 g ai/ha, scale 0 to 100 (0 no effect, 100 complete control), 13 to 15 days, read-out: Plant response rating, Foxtail, Green): 100%; pest or weed control at 31 g/ha [5, 12]: 35%; pest or weed control at 62 g/ha [5, 12]: 100%; pest or weed control at 125 g/ha ([5]; Setaria viridis, pre-emergence, Preemergence, scale 0 to 100, 0 no effect, 100 complete control, read-out: Plant response rating, Foxtail, Green): 100%; pest or weed control at 31 g/ha ([6]; Eleusine indica, post-emergence, Postemergence, 0 to 100 scale (0 no effect, 100 complete control), read-out: Plant response rating, Goosegrass): 95%; pest or weed control at 62 g/ha ([6]; Eleusine indica, post-emergence, Postemergence, scale 0 to 100 (0 no effect, 100 complete control), read-out: Plant response rating, Goosegrass): 95%; pest or weed control at 125 g/ha ([6]; Eleusine indica, post-emergence, Postemergence, scale 0 (no effect) to 100 (complete control), 13 to 15 days, read-out: Plant response rating, Goosegrass): 98%; pest or weed control at 250 g/ha ([6]; Eleusine indica, post-emergence, Postemergence, 250 g ai/ha, scale 0 to 100 (0 no effect, 100 complete control), 13 to 15 days, read-out: Plant response rating, Goosegrass): 98%; pest or weed control at 31 g/ha [6, 13]: 98%; pest or weed control at 62 g/ha [6, 13]: 100%; pest or weed control at 125 g/ha ([6]; Eleusine indica, pre-emergence, Preemergence, scale 0 to 100, 0 no effect, 100 complete control, read-out: Plant response rating, Goosegrass): 100%; Goosegrass plant response rating [6, 9]: 100; pest or weed control at 31 g/ha ([7]; Abutilon theophrasti, post-emergence, 360 h, Postemergence, 0 to 100 scale (0 no effect, 100 complete control), read-out: Plant response rating, Velvetleaf): 100%; pest or weed control at 62 g/ha ([7]; Abutilon theophrasti, post-emergence, 360 h, Postemergence, scale 0 to 100 (0 no effect, 100 complete control), read-out: Plant response rating, Velvetleaf): 100%; pest or weed control at 125 g/ha ([7]; Abutilon theophrasti, post-emergence, 360 h, Postemergence, scale 0 (no effect) to 100 (complete control), 13 to 15 days, read-out: Plant response rating, Velvetleaf): 100%; pest or weed control at 250 g/ha ([7]; Abutilon theophrasti, post-emergence, 360 h, Postemergence, 250 g ai/ha, scale 0 to 100 (0 no effect, 100 complete control), 13 to 15 days, read-out: Plant response rating, Velvetleaf): 100%; pest or weed control at 31 g/ha [7, 14]: 100%; pest or weed control at 62 g/ha [7, 14]: 100%; pest or weed control at 125 g/ha ([7]; Abutilon theophrasti, pre-emergence, 360 h, Preemergence, scale 0 to 100, 0 no effect, 100 complete control, read-out: Plant response rating, Velvetleaf): 100%; Velvetleaf plant response rating [7, 9]: 100
